Values of other authors in patent publication US9617279B1, “Imidazooxadiazole compounds” (BRISTOL-MYERS SQUIBB COMPANY, priority 2014, dated 2017).

Legend:
[1] = target: T1, protease-activated receptor type 4 (PAR4) (Homo sapiens, UniProt Q96RI0); conditions: abstract of Lee et al. 2001
T1 sequence (Q96RI0 18-385): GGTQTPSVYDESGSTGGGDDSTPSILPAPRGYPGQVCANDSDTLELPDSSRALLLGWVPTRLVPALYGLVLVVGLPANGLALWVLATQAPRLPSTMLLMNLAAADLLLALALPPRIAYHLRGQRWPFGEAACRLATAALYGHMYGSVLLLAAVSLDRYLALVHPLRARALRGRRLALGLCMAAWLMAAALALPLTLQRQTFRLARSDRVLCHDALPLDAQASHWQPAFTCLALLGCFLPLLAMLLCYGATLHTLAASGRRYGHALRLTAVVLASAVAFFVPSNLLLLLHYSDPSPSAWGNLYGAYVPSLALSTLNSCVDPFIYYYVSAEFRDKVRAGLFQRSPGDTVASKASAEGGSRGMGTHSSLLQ

PAR1 = target: T2, PAR1 (Homo sapiens, UniProt P25116); conditions: ACS patients, phase III
T2 sequence (P25116 22-425): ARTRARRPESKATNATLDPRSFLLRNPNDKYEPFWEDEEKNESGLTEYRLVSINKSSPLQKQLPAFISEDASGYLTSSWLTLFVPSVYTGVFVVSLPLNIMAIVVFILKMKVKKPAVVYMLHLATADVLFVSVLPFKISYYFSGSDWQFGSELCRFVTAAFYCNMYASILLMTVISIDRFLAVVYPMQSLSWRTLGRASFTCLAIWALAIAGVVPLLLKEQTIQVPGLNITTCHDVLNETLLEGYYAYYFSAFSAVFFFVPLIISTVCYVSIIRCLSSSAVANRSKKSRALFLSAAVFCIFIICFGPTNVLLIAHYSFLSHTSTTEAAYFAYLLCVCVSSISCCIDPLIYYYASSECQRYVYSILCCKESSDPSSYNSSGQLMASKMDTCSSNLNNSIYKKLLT

Row | SMILES | inhibition of PAR4-dependent platelet activation [1] | cardiovascular events (PAR1) | risk of major bleeding (PAR1)
1 | CCOC(=O)c1ccc(-c2nn(Cc3ccccc3)c3ccccc23)cc1 [ethyl 4-(1-benzyl-1H-indazol-3-yl)benzoate] | selective and potent inhibitor |  | 
2 | CCOC(=O)N[C@@H]1CC[C@@H]2[C@@H](C1)C[C@H]1C(=O)O[C@H](C)[C@H]1[C@H]2/C=C/c1ccc(-c2cccc(F)c2)cn1 [vorapaxar] |  | did not significantly reduce | significantly increased
